Data reported in publication PMC11533140 (Frontiers in Pharmacology, 2024).
Like-named read-outs stand apart in the source and are kept apart here.

What was measured:
HL-7702 cells = assay: inhibitory activity on normal cells, HL-7702; format: cell-based; settings: Homo sapiens, L02
Description: (§1) Several clinical PI3K candidates were severely intolerable to patients due to fatal hepatotoxicity and, thus, failed in clinical trials. Thus, evaluating the selectivity of compounds toward normal cells might reduce the risk of clinical failure of new compounds.

MRC-5 cells = assay: inhibitory activity on normal cells, MRC-5; format: cell-based; settings: Homo sapiens, MRC5
Description: as §1

DU145 cells = assay: MTT antiproliferative assay, DU145; format: cell-based; settings: Homo sapiens, DU-145
Method: (§2) The in vitro inhibition assays of all final compounds against PI3K were performed by Shanghai ChemPartner Co., Ltd. (China). The antiproliferative activities of the compounds against A2780, U87MG, MCF7, and DU145 cell lines were tested by the standard MTT method. CHO cells stably expressing the transcript of hERG were investigated by the automated whole-cell patch clamp technique, using the QPatch system (Sophion). The compound was tested with Salmonella typhimurium strains TA98 and TA100 with the plate incorporation method at seven doses. Apoptosis was evaluated using the One-Step TUNEL Apoptosis Assay Kit (FITC) (cat. no. MA0223; Meilunbio, Dalian, China), according to the manufacturer’s protocol. Male and female SD rats (SLRC Laboratory Animal Inc., Shanghai, China) were used, and the detailed pharmacokinetic procedures are described in Supplementary Material.

[1] = tested on: Salmonella typhimurium TA98; assay: Ames test, plate incorporation, TA98; format: cell-based; settings: control, dose not given
Method: as §2
(§3) S. typhimurium TA98 and TA100 were selected to conduct the Ames experiment to investigate the genotoxicity risk of compound 17p.

[2] = tested on: Salmonella typhimurium TA100; assay: Ames test, plate incorporation, TA100; format: cell-based; settings: control, dose not given
Method: as §2, §3

A2780 cells = assay: MTT antiproliferative assay, A2780; format: cell-based; settings: Homo sapiens
Method: as §2

MCF7 cells = assay: MTT antiproliferative assay, MCF7; format: cell-based; settings: Homo sapiens
Method: as §2

U87MG cells = assay: MTT antiproliferative assay, U87MG; format: cell-based; settings: Homo sapiens, U-87 MG
Method: as §2

hERG = target: T1, hERG (Homo sapiens, UniProt Q12809); assay: hERG automated whole-cell patch clamp (QPatch), CHO cells; format: cell-based; settings: human, CHO cells stably expressing hERG; CHO cells expressing hERG, patch clamp; read-out: IC50 on hERG potassium currents
T1 construct: expressed in transfected cells
T1 sequence (Q12809 whole entry): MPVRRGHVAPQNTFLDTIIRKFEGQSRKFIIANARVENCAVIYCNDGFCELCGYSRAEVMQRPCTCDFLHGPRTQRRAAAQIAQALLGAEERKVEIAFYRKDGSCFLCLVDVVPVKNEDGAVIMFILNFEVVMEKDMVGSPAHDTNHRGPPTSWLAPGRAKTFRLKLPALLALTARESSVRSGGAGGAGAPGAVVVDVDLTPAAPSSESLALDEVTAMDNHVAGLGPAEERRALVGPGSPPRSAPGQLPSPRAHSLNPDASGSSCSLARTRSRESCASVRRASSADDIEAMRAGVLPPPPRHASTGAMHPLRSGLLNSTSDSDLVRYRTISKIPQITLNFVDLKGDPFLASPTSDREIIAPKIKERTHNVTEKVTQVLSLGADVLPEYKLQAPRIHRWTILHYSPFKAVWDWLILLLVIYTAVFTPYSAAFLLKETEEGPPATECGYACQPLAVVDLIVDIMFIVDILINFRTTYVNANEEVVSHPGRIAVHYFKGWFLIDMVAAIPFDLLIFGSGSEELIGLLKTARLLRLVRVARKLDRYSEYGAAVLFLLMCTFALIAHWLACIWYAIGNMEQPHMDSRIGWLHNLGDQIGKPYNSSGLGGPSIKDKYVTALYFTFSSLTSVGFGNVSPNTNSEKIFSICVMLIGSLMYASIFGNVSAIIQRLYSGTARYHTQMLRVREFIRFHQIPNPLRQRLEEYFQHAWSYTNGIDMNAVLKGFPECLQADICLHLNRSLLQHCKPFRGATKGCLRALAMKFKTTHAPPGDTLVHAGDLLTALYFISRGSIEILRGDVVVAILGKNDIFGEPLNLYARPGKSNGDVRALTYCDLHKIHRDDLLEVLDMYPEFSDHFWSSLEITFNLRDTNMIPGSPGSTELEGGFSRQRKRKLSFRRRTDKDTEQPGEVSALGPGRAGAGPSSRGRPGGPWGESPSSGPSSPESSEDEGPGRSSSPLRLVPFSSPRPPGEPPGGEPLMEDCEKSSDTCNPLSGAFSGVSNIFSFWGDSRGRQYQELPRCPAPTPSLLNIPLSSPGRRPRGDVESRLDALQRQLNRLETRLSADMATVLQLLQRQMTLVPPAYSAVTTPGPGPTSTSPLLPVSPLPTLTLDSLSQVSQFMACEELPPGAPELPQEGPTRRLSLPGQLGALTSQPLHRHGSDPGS
Method: as §2
To evaluate cardiotoxicity, it is necessary to test inhibitory activity on hERG potassium currents.

PI3Kα = PI3Kα (Homo sapiens, UniProt P42336); assay: in vitro PI3Kα kinase inhibition assay; format: biochemical
PI3Kα, sequence (P42336 whole entry): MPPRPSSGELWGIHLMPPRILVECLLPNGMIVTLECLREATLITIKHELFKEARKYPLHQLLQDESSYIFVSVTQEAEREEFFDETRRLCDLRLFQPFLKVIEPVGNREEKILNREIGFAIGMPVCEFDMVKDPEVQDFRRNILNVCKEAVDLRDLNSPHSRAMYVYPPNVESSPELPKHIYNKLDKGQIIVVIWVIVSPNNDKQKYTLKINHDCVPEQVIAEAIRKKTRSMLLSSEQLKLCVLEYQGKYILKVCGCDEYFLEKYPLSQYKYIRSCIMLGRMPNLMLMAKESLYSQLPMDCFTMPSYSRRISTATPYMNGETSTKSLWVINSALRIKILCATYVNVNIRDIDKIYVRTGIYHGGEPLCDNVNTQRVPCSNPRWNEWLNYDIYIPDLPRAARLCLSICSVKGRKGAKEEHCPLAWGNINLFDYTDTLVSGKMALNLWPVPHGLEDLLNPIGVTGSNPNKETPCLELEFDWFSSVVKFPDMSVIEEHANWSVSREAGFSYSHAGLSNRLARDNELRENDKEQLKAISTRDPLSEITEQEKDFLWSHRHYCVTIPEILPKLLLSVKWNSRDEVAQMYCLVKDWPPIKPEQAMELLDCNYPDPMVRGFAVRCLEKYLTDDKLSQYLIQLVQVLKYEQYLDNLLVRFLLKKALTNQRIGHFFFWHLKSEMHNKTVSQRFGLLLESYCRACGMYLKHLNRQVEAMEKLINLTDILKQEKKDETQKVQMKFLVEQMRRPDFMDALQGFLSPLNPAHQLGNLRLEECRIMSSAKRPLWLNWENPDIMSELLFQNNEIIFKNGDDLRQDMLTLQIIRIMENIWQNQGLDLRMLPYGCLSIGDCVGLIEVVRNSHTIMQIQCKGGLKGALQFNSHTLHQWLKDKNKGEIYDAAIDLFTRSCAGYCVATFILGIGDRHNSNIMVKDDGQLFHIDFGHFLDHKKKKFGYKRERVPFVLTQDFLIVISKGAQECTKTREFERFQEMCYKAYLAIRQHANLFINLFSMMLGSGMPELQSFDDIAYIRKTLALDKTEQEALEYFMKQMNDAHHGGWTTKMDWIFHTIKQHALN
PI3Kα, sequence (P27986 whole entry partner): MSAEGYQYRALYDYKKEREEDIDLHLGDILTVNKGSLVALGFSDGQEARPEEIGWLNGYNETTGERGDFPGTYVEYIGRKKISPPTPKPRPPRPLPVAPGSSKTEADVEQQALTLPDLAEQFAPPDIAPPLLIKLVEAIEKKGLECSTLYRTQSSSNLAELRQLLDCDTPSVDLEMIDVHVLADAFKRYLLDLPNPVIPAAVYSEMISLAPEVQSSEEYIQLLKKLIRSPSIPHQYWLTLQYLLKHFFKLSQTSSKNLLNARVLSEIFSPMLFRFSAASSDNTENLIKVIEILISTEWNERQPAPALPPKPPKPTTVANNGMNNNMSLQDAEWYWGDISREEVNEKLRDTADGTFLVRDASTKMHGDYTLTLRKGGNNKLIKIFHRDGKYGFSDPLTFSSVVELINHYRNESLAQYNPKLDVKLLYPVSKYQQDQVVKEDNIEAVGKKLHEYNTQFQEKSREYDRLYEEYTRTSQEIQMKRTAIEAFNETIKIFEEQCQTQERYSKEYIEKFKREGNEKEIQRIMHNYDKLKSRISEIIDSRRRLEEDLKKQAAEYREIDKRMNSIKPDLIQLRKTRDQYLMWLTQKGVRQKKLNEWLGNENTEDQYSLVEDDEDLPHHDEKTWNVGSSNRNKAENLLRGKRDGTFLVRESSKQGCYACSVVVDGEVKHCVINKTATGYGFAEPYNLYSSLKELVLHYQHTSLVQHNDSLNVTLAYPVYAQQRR
Method: as §2

[3] = mean of three independent experiments, read-out: IC50 against PI3Kα
[4] = mean of three independent experiments
[5] = Figure 5 activity bins, read-out: IC50 range in SAR figure (PI3Kα)

Nc1cc(C(F)(F)F)c(-c2cc(N3CCOCC3)nc(N3CCOCC3)n2)cn1 [BKM-120, Buparlisib, reference compound] showed an IC50 (HL-7702 cells) of 890 ± 60 nM, an IC50 (MRC-5 cells) of 980 ± 100 nM and an IC50 (DU145 cells) of 2240 ± 140 nM. For the same compound, the “Number of bacterial colony revertant mutations (mean ± SD) TA98” value [1] was 241 ± 55, the “Number of bacterial colony revertant mutations (mean ± SD) TA100” value [2] was 555 ± 94 and the IC50 (A2780 cells) was 410 ± 60 nM. It also gave an IC50 (MCF7 cells) of 280 ± 40 nM and an IC50 (U87MG cells) of 2150 ± 190 nM.

Compound COc1cc(N)c(Cl)cc1C(=O)NC1CCN(CCCOc2ccc(F)cc2)CC1OC (stereo not shown) [Cisapride, reference compound] has an IC50 (hERG) of 410 ± 60 nM.

CCOC(=O)C1CCN(c2cc(-c3cnc(N)cc3C(F)(F)F)nc(N3CCOCC3)n2)CC1 [Compound 12a] gave an IC50 (PI3Kα; [3]) of 2290 nM.

CCOC(=O)C1CCN(c2nc(-c3cnc(N)cc3C(F)(F)F)cc(N3CCOCC3)n2)CC1 [Compound 12b] was tested, and the IC50 (PI3Kα; [3]) was 685 ± 62.6 nM.

With c1nn(C2CCNCC2)cc1-c1cc(N2CCOCC2)nc(N2CCOCC2)n1 [Compound 12c] the “IC50 against PI3Kα” value (PI3Kα; [4]) was “no activity” and the IC50 (PI3Kα; [3]) was greater than 10000 nM.

In the case of COc1ccc(-c2cc(N3CCOCC3)nc(N3CCOCC3)n2)cn1 [Compound 12d], the “IC50 against PI3Kα” value (PI3Kα; [4]) is reported as “poor activity” and the IC50 (PI3Kα; [3]) is reported as 1010 nM.

With c1nn(C2CCNCC2)cc1-c1nc(N2CCOCC2)nc(N2CCOCC2)n1 [Compound 12e] the “IC50 against PI3Kα” value (PI3Kα; [4]) was “no activity” and the IC50 (PI3Kα; [3]) was greater than 10000 nM.

CCOC(=O)C1CCN(c2nc(-c3cnc(N)cc3C(F)(F)F)nc(N3CCOCC3)n2)CC1 [Compound 12f] was tested, and the IC50 (PI3Kα; [3]) was 371 ± 45.4 nM.

For N#Cc1c(-c2cn[nH]c2)nc(N2CCOCC2)nc1N1CCOCC1 [Compound 17a], the IC50 (PI3Kα; [5]) was 30 to 300 nM and the IC50 (PI3Kα; [3]) was 162 ± 13.1 nM.

N#Cc1c(-c2cccc3[nH]ncc23)nc(N2CCOCC2)nc1N1CCOCC1 [Compound 17b] showed an IC50 (PI3Kα; [5]) of 30 to 300 nM and an IC50 (PI3Kα; [3]) of 254 ± 26.9 nM.

Cc1nn(C)cc1-c1nc(N2CCOCC2)nc(N2CCOCC2)c1C#N [Compound 17c] showed an IC50 (PI3Kα; [3]) of 1360 nM.

In the case of N#Cc1c(-c2cnn(C3CCNCC3)c2)nc(N2CCOCC2)nc1N1CCOCC1 [Compound 17d], the “IC50 range in SAR figure (PI3Kα)” value (PI3Kα; Figure 5 activity bins) is reported as “no activity” and the IC50 (PI3Kα; [3]) is reported as greater than 10000 nM.
